# Patent US12522607B2, “Substituted pyrazolo[3,4-d]pyrimidines as wee-1 inhibitors” (WIGEN BIOMEDICINE TECHNOLOGY (SHANGHAI) CO., LTD., priority 2020, dated 2026)
# Experiments:
# [1] = Pharmacokinetic evaluation in mice; type: in vivo, male ICR mice; conditions: for AUC(0-t) / clearance / half-life / Vd / Cmax / Tmax: male, ICR, mouse, plasma; for Vd: read-out: Vss; for F: po 10 mg/kg vs iv 2 mg/kg
# Experimental: Example 344. Pharmacokinetic Evaluation in Mice
# The compounds were administered by intravenous injection at a dose of 2 mg/kg and oral gavage at a dose of 10 mg/kg (0.5% CMC-Na suspension). 15 male ICR mice were selected for each group, and each mouse was subjected to blood collection at 3 discrete time points, with 3 mice at each time point. The time points of sampling were as follows: before administration, and 5 min, 15 min, 30 min, 1 h, 3 h, 5 h, 8 h, 12 h and 24 h after administration. 80 μL of blood was collected from the orbits or hearts of the mice at each time point after administration. All whole blood samples were collected in tubes containing EDTA K2 and centrifuged (1500-1600 rmp/min) at 4° C. for 10 min to isolate plasma, which was then stored in a refrigerator at −90° C. to −60° C. for sample analysis. The compound concentration in the plasma was determined by liquid chromatography-tandem mass spectrometry, and the corresponding pharmacokinetic parameters were obtained according to a plasma concentration-time curve.
# [2] = test system: HT29 cells; test: Antiproliferative activity against HT29 cells (Cell Titer-Lumi, ATP content); type: cell-based; conditions: Homo sapiens, HT-29, 72 after compound addition, read-out: HT-29 cells Anti-proliferative activity (IC50 for the inhibition against HT-29 cell growth)
# Procedure, shortened: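 Growth inhibition IC50 derived from luminescent ATP content after 72 (units as printed) of compound exposure over a dilution gradient. Seeding density 3000 cells per well; compound added once cells had adhered overnight.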
# [3] = target: T1, Wee-1 kinase (Homo sapiens, UniProt P30291); test: Inhibitory activity against Wee-1 kinase (Lanthra Screen Wee-1 kinase kit, Tracer 178); type: binding; conditions: Wee-1 kinase 5 nM, Tracer 178 50 nM, 1 h room temperature
# T1 construct: purchased Invitrogen
# Procedure, shortened: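 Compound gradient in DMSO mixed with 5 nM Wee-1, 2 nM Eu-anti-GST antibody and 50 nM Tracer 178 (all final). Read after one hour at room temperature; IC50 calculated against the DMSO solvent control.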
# [4] = po, 10 mg/kg, 0.5% CMC-Na suspension
# T1 sequence (P30291 whole entry): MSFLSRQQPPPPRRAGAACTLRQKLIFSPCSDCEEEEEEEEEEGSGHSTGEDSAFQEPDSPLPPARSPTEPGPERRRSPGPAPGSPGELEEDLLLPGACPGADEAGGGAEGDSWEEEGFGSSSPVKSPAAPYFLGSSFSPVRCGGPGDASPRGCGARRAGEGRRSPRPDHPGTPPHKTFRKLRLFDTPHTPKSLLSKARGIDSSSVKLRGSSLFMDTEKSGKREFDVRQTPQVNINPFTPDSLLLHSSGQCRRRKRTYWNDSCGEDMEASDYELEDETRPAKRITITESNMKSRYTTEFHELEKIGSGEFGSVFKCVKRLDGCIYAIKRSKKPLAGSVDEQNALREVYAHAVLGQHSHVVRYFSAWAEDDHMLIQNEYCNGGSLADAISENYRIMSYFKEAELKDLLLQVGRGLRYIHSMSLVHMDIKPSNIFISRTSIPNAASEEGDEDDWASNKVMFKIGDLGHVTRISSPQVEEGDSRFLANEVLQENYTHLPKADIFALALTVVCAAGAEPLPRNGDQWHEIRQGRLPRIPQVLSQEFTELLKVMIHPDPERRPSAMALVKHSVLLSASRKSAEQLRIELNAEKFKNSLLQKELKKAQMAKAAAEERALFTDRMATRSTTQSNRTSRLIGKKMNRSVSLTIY
SMILES,IC50 [2],IC50 [3],further results
"C=CCn1c(=O)c2cnc(Nc3ccc(N4CCN(C)CC4)cc3)nc2n1-c1cccc(C(C)(C)O)n1 [AZD-1775, reference compound]",≤ 1000 nM,,"AUC(0-t) ([1]; iv, 2 mg/kg): 152 ng·h/mL; clearance ([1]; iv, 2 mg/kg): 220 mL/min/kg; half-life ([1]; iv, 2 mg/kg): 18 min; Vd ([1]; iv, 2 mg/kg): 3.51 L/kg; AUC(0-t) [1, 4]: 215 ng·h/mL; Cmax [1, 4]: 247 ng/mL; Tmax [1, 4]: 30 min; half-life [1, 4]: 87 min; F [1]: 28.3%"
C=CCn1c(=O)c2cnc(Nc3ccc(N4CCN(C)CC4)cc3)nc2n1-c1ccc(=O)n(C(C)C)n1 [Compound 3],≤ 1000 nM,≤ 30 nM,"oral absorption characteristics (in words) ([1]; compared with control drug AZD-1775): good oral absorption characteristics; AUC(0-t) ([1]; iv, 2 mg/kg): 736 ng·h/mL; clearance ([1]; iv, 2 mg/kg): 45.3 mL/min/kg; half-life ([1]; iv, 2 mg/kg): 43.1 min; Vd ([1]; iv, 2 mg/kg): 1.8 L/kg; AUC(0-t) [1, 4]: 1210 ng·h/mL; Cmax [1, 4]: 533 ng/mL; Tmax [1, 4]: 15 min; half-life [1, 4]: 115 min; F [1]: 32.9%"
CC(C)n1cc(-n2c3nc(Nc4ccc5c(c4)CN(C)CC54CC4)ncc3c(=O)n2C(C)C)cc(F)c1=O [Compound 322],≤ 1000 nM,≤ 30 nM,
CC(C)n1cc(-n2c3nc(Nc4ccc(N5CCN(C)CC5)cc4)ncc3c(=O)n2C2CC2)cc(F)c1=O [Compound 323],≤ 1000 nM,≤ 30 nM,
Cc1cc(Nc2ncc3c(=O)n(C4CC4)n(-c4cc(F)c(=O)n(C(C)C)c4)c3n2)ccc1N1CCN(C)CC1 [Compound 324],≤ 1000 nM,≤ 30 nM,
Cc1cc(Nc2ncc3c(=O)n(C4CC4)n(-c4cc(F)c(=O)n(C(C)C)c4)c3n2)ccc1C1CCN(C)CC1 [Compound 325],≤ 1000 nM,≤ 30 nM,
CC(C)n1cc(-n2c3nc(Nc4ccc5c(c4)CN(C)CC54CC4)ncc3c(=O)n2C2CC2)cc(F)c1=O [Compound 326],≤ 1000 nM,≤ 30 nM,
C=CCn1c(=O)c2cnc(Nc3ccc(N4CCN(C)CC4)c(C)c3)nc2n1-c1ccc(=O)n(C(C)(C)C)c1 [Compound 327],≤ 1000 nM,≤ 30 nM,
C=CCn1c(=O)c2cnc(Nc3ccc(C4CCN(C)CC4)c(C)c3)nc2n1-c1ccc(=O)n(C(C)(C)C)c1 [Compound 328],≤ 1000 nM,≤ 30 nM,
C=CCn1c(=O)c2cnc(Nc3ccc4c(c3)CN(C)CC43CC3)nc2n1-c1ccc(=O)n(C(C)(C)C)c1 [Compound 329],≤ 1000 nM,≤ 30 nM,
CCn1c(=O)c2cnc(Nc3ccc(N4CCN(C)CC4)cc3)nc2n1-c1ccc(=O)n(C(C)(C)C)c1 [Compound 330],≤ 1000 nM,≤ 30 nM,
CCn1c(=O)c2cnc(Nc3ccc(N4CCN(C)CC4)c(C)c3)nc2n1-c1ccc(=O)n(C(C)(C)C)c1 [Compound 331],≤ 1000 nM,≤ 30 nM,
CCn1c(=O)c2cnc(Nc3ccc(C4CCN(C)CC4)c(C)c3)nc2n1-c1ccc(=O)n(C(C)(C)C)c1 [Compound 332],≤ 1000 nM,≤ 30 nM,
CCn1c(=O)c2cnc(Nc3ccc4c(c3)CN(C)CC43CC3)nc2n1-c1ccc(=O)n(C(C)(C)C)c1 [Compound 333],≤ 1000 nM,≤ 30 nM,
CC(C)n1c(=O)c2cnc(Nc3ccc(N4CCN(C)CC4)cc3)nc2n1-c1ccc(=O)n(C(C)(C)C)c1 [Compound 334],≤ 1000 nM,≤ 30 nM,
Cc1cc(Nc2ncc3c(=O)n(C(C)C)n(-c4ccc(=O)n(C(C)(C)C)c4)c3n2)ccc1N1CCN(C)CC1 [Compound 335],≤ 1000 nM,≤ 30 nM,
Cc1cc(Nc2ncc3c(=O)n(C(C)C)n(-c4ccc(=O)n(C(C)(C)C)c4)c3n2)ccc1C1CCN(C)CC1 [Compound 336],≤ 1000 nM,≤ 30 nM,
CC(C)n1c(=O)c2cnc(Nc3ccc4c(c3)CN(C)CC43CC3)nc2n1-c1ccc(=O)n(C(C)(C)C)c1 [Compound 337],≤ 1000 nM,≤ 30 nM,
CN1CCN(c2ccc(Nc3ncc4c(=O)n(C5CC5)n(-c5ccc(=O)n(C(C)(C)C)c5)c4n3)cc2)CC1 [Compound 338],≤ 1000 nM,≤ 30 nM,
Cc1cc(Nc2ncc3c(=O)n(C4CC4)n(-c4ccc(=O)n(C(C)(C)C)c4)c3n2)ccc1N1CCN(C)CC1 [Compound 339],≤ 1000 nM,≤ 30 nM,
Cc1cc(Nc2ncc3c(=O)n(C4CC4)n(-c4ccc(=O)n(C(C)(C)C)c4)c3n2)ccc1C1CCN(C)CC1 [Compound 340],≤ 1000 nM,≤ 30 nM,
CN1Cc2cc(Nc3ncc4c(=O)n(C5CC5)n(-c5ccc(=O)n(C(C)(C)C)c5)c4n3)ccc2C2(CC2)C1 [Compound 341],≤ 1000 nM,≤ 30 nM,
